Columns and labels:
[1] = target: T1, Aβ(1-40) (Homo sapiens, UniProt P05067); test: AFM topography of Aβ(1-40) after coincubation for 48 h; type: biochemical; details: coincubated with Aβ(1-40) for 48 h
T1 construct: Freeze-dried powder of amyloid polypeptide Aβ(1-40) (Invitrogen Corp.); purchased Invitrogen Corp
Procedure: Panel A is the AFM topography after Aβ(1-40) was incubated alone for 48 h. Panel B is an AFM topography after Aβ(1-40) was coincubated with L-NIBC for 48 h. Panel C and panel D are AFM topographies after Aβ(1-40) was coincubated with gold nanoparticles with an average particle size of 6.0 nm and 3.6 nm respectively (modified with L-NIBC) for 48 h. And panel E is an AFM topography after Aβ(1-40) was coincubated with AuCs in an average particle size of 1.8 nm (modified with L-NIBC) for 48 h.

[2] = target: T2, α-syn (Homo sapiens, UniProt P37840); test: In vitro α-syn aggregation kinetics (ThT fluorescent labeling method); type: biochemical; details: ligand only (L-NIBC 1.0 and 10.0 ppm), 35 μM α-syn, 37° C.
T2 construct: purchased Bachem Corp
Description: Thioflavin T (abbreviation: ThT) is a dye for dyeing amyloid fibers specifically. […] When it encounters amyloid polypeptide or protein with a fiber structure, it will immediately couple with the amyloid polypeptides or proteins and its fluorescence intensity will increase exponentially. For this reason, ThT is widely used as markers to monitor amyloidosis of peptides or proteins. This embodiment utilizes ThT fluorescent labeling method to monitor the kinetics process of fibrosis aggregation of α-syn with the existence of AuCs. The specific experiment method was as follows:
Pretreatment of α-syn monomers: Freeze-dried powder (Bachem Corp.) of α-syn was dissolved in HFIP to obtain a 1 g/L α-syn solution. The solution was incubated at room temperature for 2-4 h after sealing, then blowed to dry HFIP by high-purity nitrogen in a fume hood. […]
Sample preparation and detection: Ligand-modified AuCs in different concentrations listed in Table 1 were added to 35 μM α-syn PBS solutions respectively, and incubated continuously in a 96-well plate at 37° C., by ThT fluorescent labeling method, and were monitored the fluorescence intensity by microplate reader once every 10 minutes. The kinetic process of α-syn aggregation was characterized through the change of fluorescence intensity of ThT. […]

[3] = tested on: SH-sy5y cells; test: MPP+ induced PD cell (SH-sy5y) model, Experiment 2, CCK-8; type: cell-based; details: 1 mM MPP^+ and ligand 20 ppm, 24 h; model control 65.1±4.0%
[4] = tested on: SH-SY5Y neuroblastoma cell line; test: Aβ induced AD cell model, cell viability by CCK-8 method; type: cell-based; details: 0.01-20 ppm (L-NIBC 20 ppm); 20 μM Aβ(1-40), 24 h
Procedure: The cell viability was used as an index in the experiment of this embodiment. […] The cells used in the experiment were SH-SY5Y neuroblastoma cell line. […] Specific method:
1) SH-sy5y cells (cells had passed to the sixth generation) in logarithmic growth phase were diluted with complete medium (MEM+10% FBS+1% penicillin-streptomycin) to get a cell suspension in a density of 5×10^4/mL. The suspension was inoculated 200 μL per well into a 96-well plate, and cultivated in an incubator with 5% CO2 at 37° C. A sample was added when the cells attached to the wells.
2) 100 μL ligand-modified AuCs samples or ligand-modified gold nanoparticles samples, at different particle sizes and at concentrations of 0.04 ppm, 0.4 ppm, 4 ppm, 20 ppm, 40 ppm and 80 ppm respectively, which were dissolved by maintenance medium (MEM+2% FBS+1% penicillin-streptomycin) were added into the incubated suspension obtained from Step 1). After incubating in the incubator for 2 h, 100 μL 80 μM Aβ(1-40) was added, and then the mixture was incubated in the incubator for 24 h. […] The culture medium was removed, maintenance medium (MEM) containing 10% CCK-8 at 100 μL/well was added and was incubated for 4 h, the absorbance of each well at 450 nm was measured to reflect the prevention and treatment effects of ligand-modified AuCs on Aβ(1-40) lesion.

[5] = target: T1, Aβ(1-40); test: In vitro Aβ aggregation kinetic experiment (ThT fluorescent labeling method); type: biochemical; details: ThT fluorescence, 20 μM Aβ(1-40), 37° C., up to 20.0 ppm (L-NIBC 1.0 and 10.0 ppm)
Description: Thioflavin T (abbreviation: ThT) is a dye specifically for dyeing amyloid fibers. […] When it encounters amyloid polypeptides or proteins with a fiber structure, it will immediately couple with the amyloid polypeptides or proteins and its fluorescence intensity will increase exponentially. Just because of this property, ThT is widely used as a marker to monitor amyloidosis of peptides or proteins. The fibrosis process of Aβ(1-40) is also a nucleation-controlled polymerization process. Therefore, the growth curve of Aβ(1-40) fiber measured by ThT fluorescent labeling method is mainly divided into three stages: Initial stage, growth stage and platform stage. […] All the Aβ(1-40) PBS solutions for the experiments were prepared freshly. […] The samples were incubated continuously in a 96-well plate at 37° C. by ThT fluorescent labeling method, and monitored the fluorescence intensity by microplate reader once every 10 minutes.

T1 sequence (P05067 672-711 limits assumed): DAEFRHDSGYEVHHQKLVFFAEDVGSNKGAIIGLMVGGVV

- formation of Aβ(1-40) fibers (AFM topography) [1]: no obvious effect
- effect on kinetics of α-syn aggregation [2]: did not have an obvious effect
- effect on Aβ(1-40) amyloidosis / aggregation kinetics [5]: no obvious effect
Compound: CC(C)C(=O)N[C@@H](CS)C(=O)O [L-NIBC, N-isobutyryl-L-cysteine]
- cell viability of the ligand control group [3]: 61.5±3.8%
- effect on cell viability of Aβ induced AD cell model [4]: did not improve cell viability

Source: patent US10729718B2, “Substances containing AuCs and preparation method and use thereof” (Shenzhen Profound-View Pharma Tech Co., Ltd, priority 2016, dated 2020)
